Test results taken from patent US6642217B2, “Triterpenes having human antifungal and antiyeast activity” (Naturtek, LLC, priority 2000, dated 2003).

Key:
Microsporum canis [1] = assay: Direct addition method, solid compound in Sabouraud dextrose agar; format: cell-based; set-up: key: +++: Maximum Fungal Growth; ++: Moderate Fungal Growth; +: Minimum Fungal Growth; +/−: Very little Fungal Growth; −: No Fungal Growth; conditions: 4 mg/mL of agar; 12th day after inoculation
Outline: (§1)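 Direct-addition agar test: compound (4 mg/ml final, added undissolved to molten Sabouraud dextrose agar) in slants, incubated 25-28° C. with growth noted on day 12.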

Epidermophyton floccosum [2] = assay: as above; format: cell-based; set-up: key: +++: Maximum Fungal Growth; ++: Moderate Fungal Growth; +: Minimum Fungal Growth; +/−: Very little Fungal Growth; −: No Fungal Growth; conditions: 4 mg/mL of agar; 12th day after inoculation
Outline: as §1

Trichophyton rubrum [3] = assay: as above; format: cell-based; set-up: key: +++: Maximum Fungal Growth; ++: Moderate Fungal Growth; +: Minimum Fungal Growth; +/−: Very little Fungal Growth; −: No Fungal Growth; conditions: 4 mg/mL of agar; 12th day after inoculation
Outline: as §1

Pityrosporum ovale [4] = assay: as above; format: cell-based; set-up: key: +++: Maximum Fungal Growth; ++: Moderate Fungal Growth; +: Minimum Fungal Growth; +/−: Very little Fungal Growth; −: No Fungal Growth; conditions: 4 mg/mL of agar; 12th day after inoculation
Outline: as §1

Pityrosporum ovale [5] = assay: Direct addition into the Pityrosporum agar; format: cell-based; set-up: key to Pityrosporum ovale growth: +++: Maximum Growth; ++: Moderate Growth; +: Minimum Growth; +/−: Very Little Growth; −: No Growth; conditions: 4 mg/ml in the agar; 18 hours after inoculation
Method: Direct addition method. Sabouraud dextrose agar was prepared according to the manufacturer's instructions and 5.0 ml was dispensed in each 100×25 mm tube. The tubes were autoclaved. To each tube containing 5.0 ml of liquid agar at 45° C., 20 mg of solid test compound was added, to give a final concentration of 4 mg/ml. The agar was solidified in slants. The fungal cultures were then innoculated. […]

[6] = system: Trichophyton mentagrophytes; assay: Direct addition to liquid culture method, optical density at 600 nm; format: cell-based; conditions: 25, 50 and 100 μg/ml; 12 days
Method: Direct addition to liquid culture method. Sabouraud dextrose broth was prepared according to the manufacturer's instructions, and 7.0 ml was dispensed into 100×25 mm tubes and autoclaved. To each tube containing 7.0 ml of liquid broth, the test compounds dissolved in DMSO were added to final concentrations of 25, 50, and 100 μg/ml. The tubes were then inoculated with 150 μl of a fungus suspension and incubated at 25-28° C. for 10-12 days. Growth was measured every second day by measuring optical density at 600 nm against a blank containing sterile broth.

Microsporum audouinni [7] = assay: Direct addition method, solid compound in Sabouraud dextrose agar; format: cell-based, Microsporum audouinii; set-up: key to Fungal growth: +++: Maximum Fungal Growth; ++: Moderate Fungal Growth; +: Minimum Fungal Growth; +/−: Very little Fungal Growth; −: No Fungal Growth; conditions: for Fungal growth: 4 mg/mL of agar, 12th day after inoculation
Outline: as §1

Microsporum gypseum [8] = assay: Summary of anti-fungal assays (direct addition, agar dilution, liquid culture); format: cell-based; conditions: stated in words (Tables 1a/1b, text to Table 5)
Method: (§2) This example summarizes the results of various other assays of the anti-fungal activity of betulin derivatives. Table 5 summarizes results using different assay methods—direct addition, agar dilution, and direct addition to liquid culture, as disclosed in the previous three Examples. In some cases, only one type of assay was done with a compound. In other cases, the compound was tested by multiple assays.

Blastomyces dermatidis = assay: as above; format: cell-based; conditions: stated in words (Tables 1a/1b, text to Table 5)
Method: as §2

Epidermophyton floccosum [9] = assay: as above; format: cell-based; conditions: stated in words (Tables 1a/1b, text to Table 5); listed as betulin-3,28-dioxalate-3,28-polyethyleneimine
Method: as §2

Microsporum audouinii = assay: as above; format: cell-based; conditions: stated in words (Tables 1a/1b, text to Table 5)
Method: as §2

[10] = system: Trichophyton mentagrophytes; assay: as above; format: cell-based; conditions: stated in words (Tables 1a/1b, text to Table 5)
Method: as §2

Trichophyton tonsurans = assay: as above; format: cell-based; conditions: stated in words (Tables 1a/1b, text to Table 5)
Method: as §2

Candida albicans = assay: as above; format: cell-based; conditions: stated in words (Tables 1a/1b, text to Table 5)
Method: as §2

Crytococcus neoformans = assay: as above; format: cell-based, Cryptococcus neoformans; conditions: stated in words (Tables 1a/1b, text to Table 5)
Method: as §2

Microsporum gypseum [11] = assay: Direct addition method, solid compound in Sabouraud dextrose agar; format: cell-based; set-up: key: +++: Maximum Fungal Growth; ++: Moderate Fungal Growth; +: Minimum Fungal Growth; +/−: Very little Fungal Growth; −: No Fungal Growth; conditions: 4 mg/mL of agar; 12th day after inoculation
Outline: as §1

[12] = system: Trichophyton mentagrophytes; assay: as above; format: cell-based; set-up: key: +++: Maximum Fungal Growth; ++: Moderate Fungal Growth; +: Minimum Fungal Growth; +/−: Very little Fungal Growth; −: No Fungal Growth; conditions: 4 mg/mL of agar; 12th day after inoculation
Outline: as §1

Trichophyton tonsuran [13] = assay: as above; format: cell-based, Trichophyton tonsurans; set-up: key: +++: Maximum Fungal Growth; ++: Moderate Fungal Growth; +: Minimum Fungal Growth; +/−: Very little Fungal Growth; −: No Fungal Growth; conditions: 4 mg/mL of agar; 12th day after inoculation
Method: (§3) Direct addition method. Sabouraud dextrose agar was prepared according to the manufacturer's instructions and 5.0 ml was dispensed in each 100×25 mm tube. The tubes were autoclaved. To each tube containing 5.0 ml of liquid agar at 45° C., 20 mg of solid test compound was added, to give a final concentration of 4 mg/ml. The agar was solidified in slants. The fungal cultures were then innoculated. The slants were incubated at 25-28 ° C. for 10-12 days, and the growth of the fungus was recorded every second day. The results in Table 2 indicate growth at the 12th day of inoculation.

Microsporum canis [14] = assay: as above; format: cell-based; conditions: against Microsporum canis
Method: as §3

Microsporum audouinni [15] = assay: Agar dilution method, growth on Sabouraud dextrose agar slants; format: cell-based, Microsporum audouinii; set-up: key: +++: Maximum Fungal Growth; ++: Moderate Fungal Growth; +: Minimum Fungal Growth; +/−: Very little Fungal Growth; −: No Fungal Growth; conditions: 12th day after inoculation
Outline: (§4)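 Readout: fungal growth, noted on alternate days across a 10-12 day incubation at 25-28 °C. Test slants were Sabouraud dextrose agar with compound incorporated from DMSO before solidification.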

herpes simplex virus = conditions: cited from earlier work
Epidermophyton floccosum [16] = assay: Agar dilution method, growth on Sabouraud dextrose agar slants; format: cell-based; set-up: key to Fungal growth: +++: Maximum Fungal Growth; ++: Moderate Fungal Growth; +: Minimum Fungal Growth; +/−: Very little Fungal Growth; −: No Fungal Growth; conditions: 12th day after inoculation
Outline: as §4

[17] = system: Trichophyton mentagrophyte; assay: as above; format: cell-based, Trichophyton mentagrophytes; set-up: key to Fungal growth: +++: Maximum Fungal Growth; ++: Moderate Fungal Growth; +: Minimum Fungal Growth; +/−: Very little Fungal Growth; −: No Fungal Growth; conditions: 12th day after inoculation
Outline: as §4

Trichophyton tonsuran [18] = assay: as above; format: cell-based, Trichophyton tonsurans; set-up: key: +++: Maximum Fungal Growth; ++: Moderate Fungal Growth; +: Minimum Fungal Growth; +/−: Very little Fungal Growth; −: No Fungal Growth; conditions: 12th day after inoculation
Outline: as §4

Trichophyton rubrum [19] = assay: Direct addition method, solid compound in Sabouraud dextrose agar; format: cell-based; conditions: against Trichophyton rubrum
Method: as §3

Microsporum gypseum [20] = assay: Agar dilution method, growth on Sabouraud dextrose agar slants; format: cell-based; set-up: key: +++: Maximum Fungal Growth; ++: Moderate Fungal Growth; +: Minimum Fungal Growth; +/−: Very little Fungal Growth; −: No Fungal Growth; conditions: 12th day after inoculation
Outline: as §4

Microsporum canis [21] = assay: as above; format: cell-based; set-up: key: +++: Maximum Fungal Growth; ++: Moderate Fungal Growth; +: Minimum Fungal Growth; +/−: Very little Fungal Growth; −: No Fungal Growth; conditions: 12th day after inoculation
Outline: as §4

Trichophyton rubrum [22] = assay: as above; format: cell-based; set-up: key: +++: Maximum Fungal Growth; ++: Moderate Fungal Growth; +: Minimum Fungal Growth; +/−: Very little Fungal Growth; −: No Fungal Growth; conditions: 12th day after inoculation
Outline: as §4

Pityrosporum ovale [23] = assay: as above; format: cell-based; set-up: key: +++: Maximum Fungal Growth; ++: Moderate Fungal Growth; +: Minimum Fungal Growth; +/−: Very little Fungal Growth; −: No Fungal Growth; conditions: 12th day after inoculation
Outline: as §4

C=C(C)[C@@H]1CC[C@]2(C)CC[C@@]3(C)C(CCC4[C@@]5(C)CC[C@H](O)C(C)(C)C5CC[C@]43C)C12 (stereo partly drawn) [Lupeol, lup-20(29)-ene-3β-ol]
Fungal growth (Microsporum canis [1]): +
Fungal growth (Epidermophyton floccosum [2]): −
Fungal growth (Trichophyton rubrum [3]): +
Fungal growth (Pityrosporum ovale [4]): −
Pityrosporum ovale growth (Pityrosporum ovale [5]): +
Growth inhibition in liquid culture (optical density, FIG. 1) [6]: inhibited the growth
Fungal growth (Microsporum audouinni [7]): +

Betulin-3,28-dioxalate-3,28-polyethyleneimine
Active against Microsporum gypseum (Microsporum gypseum [8]): Microsporum gypseum,
Active against Blastomyces dermatidis (Blastomyces dermatidis): against Blastomyces dermaidis
Active against Epidermophyton floccosum (Epidermophyton floccosum [9]): against Epidermophyton floccosum
Active against Microsporum audouinii (Microsporum audouinii): Microsporum audouinii,
Active against Trichophyton mentagrophytes [10]: Trichophyton mentagrophytes,
Active against Trichophyton tonsurans (Trichophyton tonsurans): Trichophyton tonsurans,
Active against Candida albicans (Candida albicans): Candida albicans,
Active against Cryptococcus neoformans (Crytococcus neoformans): against Crytococcus neoformans

C=C(C)[C@@H]1CC[C@]2(COC(=O)/C=C\C(=O)O)CC[C@]3(C)[C@H](CC[C@@H]4[C@@]5(C)CC[C@H](O)C(C)(C)[C@@H]5CC[C@]43C)[C@@H]12 [Betulin-28-maleate]
Fungal growth (Microsporum gypseum [11]): +++
Fungal growth (Microsporum canis [1]): −
Fungal growth (Epidermophyton floccosum [2]): −
Fungal growth (Trichophyton rubrum [3]): ++
Fungal growth (Pityrosporum ovale [4]): −
Fungal growth [12]: ++
Fungal growth (Microsporum audouinni [7]): ++
Fungal growth (Trichophyton tonsuran [13]): ++
best anti-fungal or anti-yeast activity by the direct addition method (Microsporum canis [14]): against Microsporum canis

C=C(C)[C@@H]1CC[C@]2(CO)CC[C@]3(C)[C@H](CC[C@@H]4[C@@]5(C)CC[C@H](O)C(C)(C)[C@@H]5CC[C@]43C)[C@@H]12 [Betulin, lup-20(29)-ene-3,28-diol]
Fungal growth (Microsporum audouinni [15]; 12.5 μg/ml): +/−
Fungal growth (Microsporum audouinni [15]; 25 μg/ml): +/−
Fungal growth (Microsporum audouinni [15]; 50 μg/ml): −
Fungal growth (Microsporum audouinni [15]; 100 μg/ml): −
Active against Microsporum audouinii (Microsporum audouinii): Microsporum audouinii,
Fungal growth (Microsporum gypseum [11]): ++
Fungal growth (Microsporum canis [1]): +
Fungal growth (Epidermophyton floccosum [2]): −
Fungal growth (Trichophyton rubrum [3]): −
Fungal growth (Pityrosporum ovale [4]): −
Fungal growth [12]: ++
Anti-viral activity against herpes simplex virus (herpes simplex virus): anti-viral activity
Fungal growth (Epidermophyton floccosum [16]; 12.5 μg/ml): +
Fungal growth (Epidermophyton floccosum [16]; 25 μg/ml): +
Fungal growth (Epidermophyton floccosum [16]; 50 μg/ml): −
Fungal growth (Epidermophyton floccosum [16]; 100 μg/ml): −
Fungal growth (Microsporum audouinni [7]): −
best anti-fungal or anti-yeast activity by the direct addition method (Microsporum audouinni [7]; against Microsporum audouinii): against Microsporum audouinii
Fungal growth ([17]; 12.5 μg/ml): ++
Fungal growth ([17]; 25 μg/ml): +
Fungal growth ([17]; 50 μg/ml): +/−
Fungal growth ([17]; 100 μg/ml): −
Fungal growth (Trichophyton tonsuran [18]; 12.5 μg/ml): +++
Fungal growth (Trichophyton tonsuran [18]; 25 μg/ml): ++
Fungal growth (Trichophyton tonsuran [18]; 50 μg/ml): ++
Fungal growth (Trichophyton tonsuran [18]; 100 μg/ml): −
Fungal growth (Trichophyton tonsuran [13]): ++
best anti-fungal or anti-yeast activity by the direct addition method (Trichophyton rubrum [19]): against Trichophyton rubrum
Fungal growth (Microsporum gypseum [20]; 12.5 μg/ml): +++
Fungal growth (Microsporum gypseum [20]; 25 μg/ml): ++
Fungal growth (Microsporum gypseum [20]; 50 μg/ml): ++
Fungal growth (Microsporum gypseum [20]; 100 μg/ml): −
Fungal growth (Microsporum canis [21]; 12.5 μg/ml): ++
Fungal growth (Microsporum canis [21]; 25 μg/ml): +
Fungal growth (Microsporum canis [21]; 50 μg/ml): +/−
Fungal growth (Microsporum canis [21]; 100 μg/ml): −
Fungal growth (Trichophyton rubrum [22]; 12.5 μg/ml): ++
Fungal growth (Trichophyton rubrum [22]; 25 μg/ml): ++
Fungal growth (Trichophyton rubrum [22]; 50 μg/ml): +
Fungal growth (Trichophyton rubrum [22]; 100 μg/ml): −
Fungal growth (Pityrosporum ovale [23]; 12.5 μg/ml): +++
Fungal growth (Pityrosporum ovale [23]; 25 μg/ml): +++
Fungal growth (Pityrosporum ovale [23]; 50 μg/ml): ++
Fungal growth (Pityrosporum ovale [23]; 100 μg/ml): +/−
